Reference: patent US20220339260A1, “METHOD FOR PRODUCING INSULIN-PRODUCING CELL USING DIHYDROINDOLIZINONE DERIVATIVES” (TOKYO INSTITUTE OF TECHNOLOGY, priority 2019, published 2022)

Test system: human iPS cell Toe strain
Assay: Effect to promote differentiation from human iPS cells into insulin-producing cells (insulin-positive cell rate, Reference Example 1)
Type: cell-based
Design: key to Activity: the sum of activity values at the two concentrations was obviously higher than the control untreated with compounds while being lower than the positive control was expressed as +; the sum was equivalent to the positive control was expressed as ++; the sum was higher than the positive control was expressed as +++
Conditions: activity intensity: sum of activity values (increment in insulin-positive cell rate) at 2 μM and 10 μM compared with positive control (compound of Synthesis Example 1)
Source text: The evaluation system of the effect (efficacy) to promote differentiation from human iPS cells into insulin-producing cells was constructed with reference to known information (Non Patent Document 6). Further, the medium used in each differentiation stage was also produced with reference to known information (differentiation media A to E (Media A to E) described in Non Patent Document 6 were used respectively for stages 1 to 5; however, a medium free from GLP-1 receptor agonist and nicotinamide was used as differentiation medium E).
In order to evaluate the efficacy of each compound, the compound of Synthesis Example 1 was used as a positive control, and dimethylsulfoxide (DMSO) (SIGMA, D2650) with a final concentration of 0.1% was used as a control untreated with compounds. Each compound was dissolved in DMSO, and two types of compound solutions were prepared so as to have final concentrations of 2 μM and 10 μM after the compound was added to the medium. In the following evaluation, the compound solutions were added to the medium to 0.1% that is the final concentration of DMSO.
First, induction from human iPS cell Toe strain (National Institutes of Biomedical Innovation, Health and Nutrition) into cells on day 7 of culture (2 days after replacement with differentiation medium C (cells in the differentiation process from FOXA2-positive primitive gut tube cells into PDX1-positive pancreatic progenitor cells)) was performed according to the method of Non Patent Document 6 for “inducing differentiation from human iPS cells into pancreatic β cells”, and the cells were collected and thereafter stored in liquid nitrogen using Bambanker (NIPPON Genetics Co, Ltd.) at 1×10^7 cells/mL/tube, to produce a cell stock for evaluation. The cell stock was dissolved at the start of the evaluation of efficacy, suspended in differentiation medium C for stage 3 (DMEM high glucose (Life technologies, 11965092), 0.25 μM SANT-1, 0.1 μM LDN193189 (Stemgent, 04-0074), 10 μM SB431542, 2 μM Retinoic acid (Stemgent, 04-0021), 1% B27 serum free supplement (Life technologies, 17504044) and thereafter seeded in a 96-well plate (Corning, #3340) coated with Synthemax II (Corning, #5656) at 1×10^5 cells/well. After culturing for 2 days, the medium was removed, and new differentiation medium C for stage 3 with the compound or only DMSO added was added thereto at 100 μL/well. After culturing for 2 days, the medium was removed, and new differentiation medium D for stage 4 (DMEM high glucose, 0.1 μM LDN193189, 5 μM TGF-β type I receptor kinase inhibitor II (Calbiochem 616452), 0.3 μM (−)-indolactam V (Enzo life science ALX-420-011-C300), 1% B27 serum free supplement) with the compound or only DMSO added was added thereto at 100 μL/well. After culturing for 2 to 3 days, the medium was removed, and new differentiation medium E for stage 5 (GLP-1 receptor agonist and nicotinamide-free; Knockout […] (Life technologies, 12660012), 1% B27 serum free supplement) with the compound or only DMSO added was added thereto at 200 μL/well. After culturing for 2 days, the medium was removed, and a 4% paraformaldehyde phosphorus acid buffer (Wako, 163-20145) was added thereto at 150 μL/well and left standing for 30 to 60 minutes at room temperature to fix the cells. A phosphorus acid buffer (PBS) (Takara, T9181) containing 1% Triton X-100 (Sigma, T8787) was left standing for 15 minutes at room temperature, then washed with PBS-T (Takara, T9183), and was blocked for 1 hour using 20% Blocking One (Nacalai tesque, Tokyo, Japan) diluted with PBS-T at room temperature. After the removal of Blocking One, guinea pig anti-insulin antibody (Abcam, ab7842) diluted 200-fold with 20% Blocking One was added thereto at 50 μL/well, followed by standing at 4° C. overnight. […]

Compound | Activity
Cc1cc2n(c1)C(C(=O)Nc1ncc(-c3ccc(OC(C)(C)C)cc3)s1)CCC2=O (centres unmarked) [Example 63] | +++
O=C1CCC(C(=O)Nc2ncc(-c3ccc(OC(F)(F)F)cc3)s2)n2cc(Cl)cc21 (centres unmarked) [Example 64] | ++
CC1(C(=O)Nc2ncc(-c3ccc(OC(F)(F)F)cc3)s2)CCC(=O)c2cccn21 (centres unmarked) [Example 65] | +++
Cc1ccc(-c2cnc(NC(=O)C3(C)CCC(=O)c4cccn43)s2)cc1 (centres unmarked) [Example 66] | ++
Cc1cccc(-c2cnc(NC(=O)C3(C)CCC(=O)c4cccn43)s2)c1 (centres unmarked) [Example 67] | ++
CC1(C(=O)Nc2ncc(-c3ccc4c(c3)OC(F)(F)O4)s2)CCC(=O)c2cccn21 (centres unmarked) [Example 68] | ++
CC(C)Oc1ccc(-c2cnc(NC(=O)C3(C)CCC(=O)c4cccn43)s2)cc1 (centres unmarked) [Example 69] | ++
Cc1cc(-c2cnc(NC(=O)C3(C)CCC(=O)c4cccn43)s2)ccc1OC(F)(F)F (centres unmarked) [Example 70] | ++
CC1(C(=O)Nc2ncc(-c3ccc(OC(F)(F)F)c(Cl)c3)s2)CCC(=O)c2cccn21 (centres unmarked) [Example 71] | +++
CC1(C(=O)Nc2ncc(-c3cccc(OC(F)(F)F)c3)s2)CCC(=O)c2cccn21 (centres unmarked) [Example 72] | +++
O=C1CCC(C(=O)Nc2ccc(-c3ccc(OC(F)(F)F)cc3)cc2)n2cccc21 (centres unmarked) [Example 73] | +
O=C1CCC(C(=O)Nc2ccc(-c3ccc4c(c3)OC(F)(F)O4)cc2)n2cccc21 (centres unmarked) [Example 74] | +
O=C1CCC(C(=O)Nc2ccc(-c3ccc(OC(F)F)cc3)cc2)n2cccc21 (centres unmarked) [Example 75] | +
O=C1CCC(C(=O)Nc2ccc(-c3ccc(OC(F)(F)F)c(Cl)c3)cc2)n2cccc21 (centres unmarked) [Example 76] | +
O=C1CCC(C(=O)Nc2ccc(-c3ccc(OC(F)(F)F)cc3)cc2)n2c(Br)ccc21 (centres unmarked) [Example 77] | +
O=C1CCC(C(=O)Nc2ccc(-c3ccc(OC(F)(F)F)cc3)cc2F)n2cccc21 (centres unmarked) [Example 78] | ++
O=C1CCC(C(=O)Nc2ccc(-c3ccc(OC(F)(F)F)c(Cl)c3)cc2F)n2cccc21 (centres unmarked) [Example 79] | +
CC(C)(C)Oc1ccc(-c2ccc(NC(=O)C3CCC(=O)c4cccn43)c(F)c2)cc1 (centres unmarked) [Example 80] | +
Cc1cc(-c2ccc(OC(F)(F)F)cc2)ccc1NC(=O)C1CCC(=O)c2cccn21 (centres unmarked) [Example 81] | +

Compound | Activity
O=C1CCC(C(=O)Nc2ccc(-c3ccc(OC(F)(F)F)cc3)cn2)n2cccc21 (centres unmarked) [Example 82] | +
O=C1CCC(C(=O)Nc2ccc3nc(-c4ccc(OC(F)(F)F)cc4)sc3c2)n2cccc21 (centres unmarked) [Example 83] | +
Cc1nc(NC(=O)C2CCC(=O)c3cccn32)sc1-c1ccc2c(c1)OC(F)(F)O2 (centres unmarked) [Example 84] | +++
Cc1nc(NC(=O)C2CCC(=O)c3cccn32)sc1-c1ccc(OCc2ccccc2)c(F)c1 (centres unmarked) [Example 85] | +++
Cc1nc(NC(=O)C2CCC(=O)c3cccn32)sc1-c1ccc(OCC(C)C)cc1 (centres unmarked) [Example 86] | +++
Cc1nc(NC(=O)C2CCC(=O)c3cccn32)sc1-c1cnc(OCC(C)C)c(Cl)c1 (centres unmarked) [Example 87] | +++
Cc1nc(NC(=O)C2CCC(=O)c3cccn32)sc1-c1ccc(OCC(F)(F)F)cc1 (centres unmarked) [Example 88] | +++
Cc1cc(-c2sc(NC(=O)C3CCC(=O)c4cccn43)nc2C)ccc1OC(F)(F)F (centres unmarked) [Example 89] | +++
Cc1nc(NC(=O)C2CCC(=O)c3cccn32)sc1C1=CCN(C(=O)OC(C)(C)C)CC1 (centres unmarked) [Example 90] | +++
Cc1nc(NC(=O)C2CCC(=O)c3cccn32)sc1-c1ccc(OC(F)F)cc1 (centres unmarked) [Example 91] | +++
Cc1cc(-c2ccc3nc(NC(=O)C4CCC(=O)c5cccn54)sc3c2)ccc1OC(F)(F)F (centres unmarked) [Example 92] | +++
O=C1CCC(C(=O)Nc2nc3ccc(-c4ccc(Cl)cc4)cc3s2)n2cccc21 (centres unmarked) [Example 93] | +++
O=C1CCC(C(=O)Nc2nc3ccc(-c4ccc(F)cc4)cc3s2)n2cccc21 (centres unmarked) [Example 94] | +++
O=C(c1ccccc1)c1ccc(-c2cnc(NC(=O)C3CCC(=O)c4cccn43)s2)cc1 (centres unmarked) [Example 95] | +++
CC(C)c1nc(NC(=O)C2CCC(=O)c3cccn32)sc1-c1ccc(OC(F)(F)F)cc1 (centres unmarked) [Example 96] | +
CC(C)C(=O)N1CC=C(c2cnc(NC(=O)C3CCC(=O)c4cccn43)s2)CC1 (centres unmarked) [Example 97] | ++
CC(C)NC(=O)N1CC=C(c2cnc(NC(=O)C3CCC(=O)c4cccn43)s2)CC1 (centres unmarked) [Example 98] | ++
COC(=O)c1nc(NC(=O)C2CCC(=O)c3cccn32)sc1-c1ccc(OCC(F)(F)F)cc1 (centres unmarked) [Example 99] | ++
COC(=O)c1nc(NC(=O)C2CCC(=O)c3cccn32)sc1-c1ccc(OC(C)(C)C)cc1 (centres unmarked) [Example 100] | +
